Key:
PHBPU = experiment: Post-emergence herbicidal effect; type: in vivo; conditions: Dosage 320 g/ha, one-leaf stage, visual scoring after ca. 3 weeks vs untreated controls, 100% = plants have died
Description: (§1) 2. Post-Emergence Herbicidal Effect and Crop Plant Compatibility Seeds of monocotyledonous or dicotyledonous weed plants or crop plants are planted in wood-fiber pots in sandy loam, covered with earth and grown in a greenhouse under good growth conditions. 2 to 3 weeks after sowing, the test plants are treated in the one-leaf stage. The compounds according to the invention, formulated in the form of wettable powders (WP) or as emulsion concentrates (EC), are then sprayed onto the green plant parts as aqueous suspension or emulsion at a water application rate of 600 to 800 l/ha (converted) with the addition of 0.2% of wetting agent. The dosage of the compounds according to the invention is given in grams per hectare. After ca. 3 weeks' standing time of the test plants in the greenhouse under optimum growth conditions, the effect of the preparations is scored visually in comparison with untreated controls (herbicidal effect in percent (%): 100% effect=plants have died, 0% effect=as control plants).

Amaranthus retroflexus [1] = experiment: Post-emergence herbicidal effect; type: in vivo; conditions: Dosage 320 g/ha, one-leaf stage, visual scoring after ca. 3 weeks vs untreated controls, 100% = plants have died
Description: as §1, with “The following abbreviations are used in the tables below: [table] 2.” for “2.”

Lolium multiflorum [2] = experiment: Post-emergence herbicidal effect; type: in vivo; conditions: Dosage 320 g/ha, one-leaf stage, visual scoring after ca. 3 weeks vs untreated controls, 100% = plants have died
Description: as §1, with “The following abbreviations are used in the tables below: [table] 2.” for “2.”

Alopecurus myosuroides [3] = experiment: Post-emergence herbicidal effect; type: in vivo; conditions: Dosage 320 g/ha, one-leaf stage, visual scoring after ca. 3 weeks vs untreated controls, 100% = plants have died
Description: as §1, with “The following abbreviations are used in the tables below: [table] 2.” for “2.”

Viola tricolor [4] = experiment: Post-emergence herbicidal effect; type: in vivo; conditions: Dosage 320 g/ha, one-leaf stage, visual scoring after ca. 3 weeks vs untreated controls, 100% = plants have died
Description: as §1, with “The following abbreviations are used in the tables below: [table] 2.” for “2.”

Echinochloa crus-galli [5] = experiment: Post-emergence herbicidal effect; type: in vivo; conditions: Dosage 320 g/ha, one-leaf stage, visual scoring after ca. 3 weeks vs untreated controls, 100% = plants have died
Description: as §1, with “The following abbreviations are used in the tables below: [table] 2.” for “2.”

Stellaria media [6] = experiment: Post-emergence herbicidal effect; type: in vivo; conditions: Dosage 320 g/ha, one-leaf stage, visual scoring after ca. 3 weeks vs untreated controls, 100% = plants have died
Description: as §1, with “The following abbreviations are used in the tables below: [table] 2.” for “2.”

Abutilon theophrasti [7] = experiment: Post-emergence herbicidal effect; type: in vivo; conditions: Dosage 320 g/ha, one-leaf stage, visual scoring after ca. 3 weeks vs untreated controls, 100% = plants have died
Description: as §1, with “The following abbreviations are used in the tables below: [table] 2.” for “2.”

Polygonum convolvulus [8] = experiment: Post-emergence herbicidal effect; type: in vivo; conditions: Dosage 320 g/ha, one-leaf stage, visual scoring after ca. 3 weeks vs untreated controls, 100% = plants have died
Description: as §1, with “The following abbreviations are used in the tables below: [table] 2.” for “2.”

Veronica persica [9] = experiment: Post-emergence herbicidal effect; type: in vivo; conditions: Dosage 320 g/ha, one-leaf stage, visual scoring after ca. 3 weeks vs untreated controls, 100% = plants have died
Description: as §1, with “The following abbreviations are used in the tables below: [table] 2.” for “2.”

Setaria viridis [10] = experiment: Post-emergence herbicidal effect; type: in vivo; conditions: Dosage 320 g/ha, one-leaf stage, visual scoring after ca. 3 weeks vs untreated controls, 100% = plants have died
Description: as §1, with “The following abbreviations are used in the tables below: [table] 2.” for “2.”

Amaranthus retroflexus [11] = experiment: Pre-emergence herbicidal effect; type: in vivo; conditions: Dosage 320 g/ha, visual scoring after 3 weeks vs untreated controls, 100% = plants have died
Description: (§2) 1. Pre-Emergence Herbicidal Effect and Crop Plant Compatibility Seeds of monocotyledonous or dicotyledonous weed plants or crop plants are planted in wood-fiber pots in sandy loam and covered with earth. The compounds according to the invention, formulated in the form of wettable powders (WP) or as emulsion concentrates (EC), are then applied as aqueous suspension or emulsion at a water application rate of 600 to 800 l/ha (converted) with the addition of 0.2% of wetting agent to the surface of the covering earth. The dosage of the compounds according to the invention is given in grams per hectare. Following the treatment, the pots are placed in a greenhouse and kept under good growth conditions for the test plants. The visual scoring of the damage on the test plants is carried out after an experiment time of 3 weeks in comparison with untreated controls (herbicidal effect in percent (%): 100% effect=plants have died, 0% effect=as control plants). The following abbreviations are used in the tables below: [table]

Lolium multiflorum [12] = experiment: Pre-emergence herbicidal effect; type: in vivo; conditions: Dosage 320 g/ha, visual scoring after 3 weeks vs untreated controls, 100% = plants have died
Description: as §2

Avena fatua = experiment: Pre-emergence herbicidal effect; type: in vivo; conditions: Dosage 320 g/ha, visual scoring after 3 weeks vs untreated controls, 100% = plants have died
Description: as §2

Alopecurus myosuroides [13] = experiment: Pre-emergence herbicidal effect; type: in vivo; conditions: Dosage 320 g/ha, visual scoring after 3 weeks vs untreated controls, 100% = plants have died
Description: as §2

Viola tricolor [14] = experiment: Pre-emergence herbicidal effect; type: in vivo; conditions: Dosage 320 g/ha, visual scoring after 3 weeks vs untreated controls, 100% = plants have died
Description: as §2

Echinochloa crus-galli [15] = experiment: Pre-emergence herbicidal effect; type: in vivo; conditions: Dosage 320 g/ha, visual scoring after 3 weeks vs untreated controls, 100% = plants have died
Description: as §2

Matricaria inodora [16] = experiment: Pre-emergence herbicidal effect; type: in vivo; conditions: Dosage 320 g/ha, visual scoring after 3 weeks vs untreated controls, 100% = plants have died
Description: as §2

Stellaria media [17] = experiment: Pre-emergence herbicidal effect; type: in vivo; conditions: Dosage 320 g/ha, visual scoring after 3 weeks vs untreated controls, 100% = plants have died
Description: as §2

Polygonum convolvulus [18] = experiment: Pre-emergence herbicidal effect; type: in vivo; conditions: Dosage 320 g/ha, visual scoring after 3 weeks vs untreated controls, 100% = plants have died
Description: as §2

Veronica persica [19] = experiment: Pre-emergence herbicidal effect; type: in vivo; conditions: Dosage 320 g/ha, visual scoring after 3 weeks vs untreated controls, 100% = plants have died
Description: as §2

Setaria viridis [20] = experiment: Pre-emergence herbicidal effect; type: in vivo; conditions: Dosage 320 g/ha, visual scoring after 3 weeks vs untreated controls, 100% = plants have died
Description: as §2

[21] = logp (HCOOH), chemicophysical data; conditions: for chromatographic logP: HCOOH (formic acid)
Matricaria inodora [22] = experiment: Post-emergence herbicidal effect; type: in vivo; conditions: Dosage 320 g/ha, one-leaf stage, visual scoring after ca. 3 weeks vs untreated controls, 100% = plants have died
Description: as §1, with “The following abbreviations are used in the tables below: [table] 2.” for “2.”

Abutilon theophrasti [23] = experiment: Pre-emergence herbicidal effect; type: in vivo; conditions: Dosage 320 g/ha, visual scoring after 3 weeks vs untreated controls, 100% = plants have died
Description: as §2

Cyperus esculentus = experiment: Pre-emergence herbicidal effect; type: in vivo; conditions: Dosage 320 g/ha, visual scoring after 3 weeks vs untreated controls, 100% = plants have died
Description: as §2

SMILES | Post-emergence herbicidal effect PHBPU (PHBPU) | Post-emergence herbicidal effect AMARE (Amaranthus retroflexus [1]) | Post-emergence herbicidal effect LOLMU (Lolium multiflorum [2]) | Post-emergence herbicidal effect ALOMY (Alopecurus myosuroides [3]) | Post-emergence herbicidal effect VIOTR (Viola tricolor [4]) | Post-emergence herbicidal effect ECHCG (Echinochloa crus-galli [5]) | Post-emergence herbicidal effect STEME (Stellaria media [6]) | Post-emergence herbicidal effect ABUTH (Abutilon theophrasti [7]) | Post-emergence herbicidal effect POLCO (Polygonum convolvulus [8]) | Post-emergence herbicidal effect VERPE (Veronica persica [9]) | Post-emergence herbicidal effect SETVI (Setaria viridis [10]) | Pre-emergence herbicidal effect AMARE (Amaranthus retroflexus [11]) | Pre-emergence herbicidal effect LOLMU (Lolium multiflorum [12]) | Pre-emergence herbicidal effect ALOMY (Alopecurus myosuroides [13]) | Pre-emergence herbicidal effect VIOTR (Viola tricolor [14]) | Pre-emergence herbicidal effect ECHCG (Echinochloa crus-galli [15]) | Pre-emergence herbicidal effect MATIN (Matricaria inodora [16]) | Pre-emergence herbicidal effect STEME (Stellaria media [17]) | Pre-emergence herbicidal effect VERPE (Veronica persica [19]) | Pre-emergence herbicidal effect SETVI (Setaria viridis [20]) | other results
CC[C@H]1Cc2ccc(C)cc2[C@@H]1Nc1nc(C)c(C#N)c(N)n1 [Example 1.96] | 90% | 85% | 90% | 80% | 85% | 85% | 95% | 85% | 85% | 85% | 85% | 100% | 100% | 100% | 100% | 100% | 100% | 100% | 100% | 100% | Pre-emergence herbicidal effect AVEFA (Avena fatua): 80%; Pre-emergence herbicidal effect POLCO (Polygonum convolvulus [18]): 100%
Cc1ccc2c(c1)[C@H](Nc1ncc(Br)c(N)n1)[C@@H](C)C2 [Example 1.67, 5-Bromo-N2-[(1R,2S)-2,6-dimethyl-2,3-dihydro-1H-inden-1-yl]pyrimidine-2,4-diamine] | 93% | 90% | 87% | 85% | 80% | 95% | 90% | 90% | 85% | 85% | 87% | 100% | 95% | 95% | 100% | 100% | 100% | 100% | 100% | 100% | chromatographic logP [21]: 1.3; Post-emergence herbicidal effect MATIN (Matricaria inodora [22]): 80%; Pre-emergence herbicidal effect AVEFA (Avena fatua): 80%; Pre-emergence herbicidal effect ABUTH (Abutilon theophrasti [23]): 90%; Pre-emergence herbicidal effect POLCO (Polygonum convolvulus [18]): 100%
Cc1nc(NC2CCOc3ccccc32)nc(N)c1C#N (racemic) [Example 1.25] |  | 90% | 95% | 90% |  | 90% | 100% |  |  | 95% |  | 100% | 100% | 100% | 90% | 100% | 100% | 100% | 100% | 100% | logp (HCOOH) ([21]; HCOOH): solid, m.p.: 213.3° C.; logp (HCOOH): 1.55; 1H-NMR (CDCl3, 400 MHZ, δ in ppm): 2.10; Pre-emergence herbicidal effect CYPES (Cyperus esculentus): 100%
Cc1ccc2c(c1)[C@H](Nc1ncc(C#C[Si](C)(C)C)c(N)n1)[C@@H](C)C2 [Example 1.98, N2-[(1R,2S)-2,6-Dimethyl-2,3-dihydro-1H-inden-1-yl]-5-[(trimethylsilyl)ethynyl]-pyrimidine-2,4-diamine] |  |  |  |  |  |  |  |  |  |  |  | 80% |  |  | 100% |  | 80% | 100% | 100% | 80% | chromatographic logP [21]: 2.28; Pre-emergence herbicidal effect CYPES (Cyperus esculentus): 100%

From US8329717B2, “Pyrimidine derivatives and their use for controlling undesired plant growth” (Bayer Cropscience AG, priority 2008, dated 2012)
